According to article PMC6072100, “Exploring the links between peptoid antibacterial activity and toxicity” (MedChemComm, 2017):
Like-named read-outs stand apart in the source and are kept apart here. Square brackets hold non-standard residues; d marks the D form. Peptide text beside a SMILES is read from it. Gly(N-(CH2)6NH2) = NCCCCCCNCC(=O)O; Gly(N-2-aminoethyl) = NCCNCC(=O)O; Nspe = C[C@H](NCC(=O)O)c1ccccc1; Nphe = O=C(O)CNCc1ccccc1; Nlys = NCCCCNCC(=O)O

How the values were obtained:
Assay type in all cases: cell-based
[1] = system: Escherichia coli K-12 wild-type strain (W3110/ATCC27325); conditions: lowest concentration completely inhibiting growth, 37 °C, 16 h; range 2–100 μM
Protocol: (§1) Escherichia coli K-12 wild-type strain (W3110/ATCC27325, F^–, λ^–, rpoS(Am), rph-1, Inv(rrnD-rrnE)), Pseudomonas aeruginosa PA01 (ATCC 15692) Staphylococcus aureus (3R7089 strain Oxford/ATCC9144) and Staphylococcus epidermidis (laboratory strain from clinical isolate) were selected for bacteriological studies as representative Gram-negative (E. coli and P. aeruginosa) and Gram-positive (S. aureus and S. epidermidis) species. Bacterial cultures were prepared by streaking bacterial strains onto LB agar plates with an inoculation loop and incubated overnight at 37 °C. A single colony was selected and placed in 5 mL of Iso-sensitest broth (Oxoid, ThermoScientific) and incubated with shaking for 16–18 h at 37 °C to provide liquid cultures for testing.
(§2) MIC values were obtained according to the protocol described by J. M. Andrews et al.[58] and were conducted in 96-well plates (Sarstedt). Bacteria were grown from overnight cultures in Iso-sensitest broth to an A650nm of 0.07 equivalent to a 0.5 MacFarland standard (240 μM BaCl2 in 0.18 M H2SO4). This culture was diluted ten-fold with Iso-sensitest broth before use. Peptoids were initially dissolved in DMSO (5 mM) and diluted further in Iso-sensitest broth to achieve a concentration range of 4–200 μM using 2-fold serial dilutions. 50 μl of inoculum and 50 μl of peptoid solution were added to each test well (final concentration range of 2–100 μM). Experiments were performed in triplicate. A positive control for bacterial growth contained only the inoculum and Iso-sensitest broth. Other controls contained the inoculum and serial dilutions of ampicillin (from 250 μg mL^–1 to 2 μg mL^–1), serial dilutions of DMSO and the inoculum to confirm no inhibitory effect on bacterial growth, and Iso-sensitest broth alone as a sterile control. […] Quantitative data was attained from absorbance values using a Biotek Synergy H4 plate reader.
(§3) Antibacterial MIC determination
(§4) Escherichia coli K-12 wild-type strain (W3110 / ATCC27325, F-, λ-, rpoS(Am), rph-1, Inv(rrnD-rrnE)), Pseudomonas aeruginosa PA01 (ATCC 15692) Staphylococcus aureus (3R7089 strain Oxford / ATCC9144) and Staphylococcus epidermidis (laboratory strain from clinical isolate) were selected for bacteriological studies as representative Gram-negative (E. coli and P. aeruginosa) and Gram-positive (S. aureus and S. epidermidis) species. Bacterial cultures were prepared by streaking bacterial strains onto LB agar plates with an inoculation loop and incubated overnight at 37 °C.
(§5) A single colony was selected and placed in 5 mL of Iso-sensitest broth (Oxoid, ThermoScientific) and incubated with shaking for 16-18 h at 37 °C to provide liquid […]
(§6) MIC values were obtained according to the protocol described by J. M. Andrews et al.1 and were conducted in 96-well plates (Sarstedt). Bacteria were grown from overnight cultures in Iso-sensitest broth to an A650nm of 0.07 equivalent to a 0.5 MacFarland standard (240 μM BaCl2 in 0.18 M H2SO4). This culture was diluted ten-fold with Iso-sensitest broth before use. Peptoids were initially dissolved in DMSO (5 mM) and diluted further in Iso-sensitest broth to achieve a concentration range of 4 – 200 µM using 2-fold serial dilutions. 50 μl of inoculum and 50 μl of peptoid solution were added to each test well (final concentration range of 2 – 100 µM). Experiments were performed in triplicate. A positive control for bacterial growth contained only the inoculum and Iso-sensitest broth. Other controls contained the inoculum and serial dilutions of ampicillin (from 250 µg/mL to 2 µg/mL), serial dilutions of DMSO and the inoculum to confirm no inhibitory effect on bacterial growth, and Iso-sensitest broth alone as a sterile control. […]
(§7) growth after incubation at 37 °C for 16 h with shaking. Quantitative data was attained from absorbance values using a Biotek Synergy H4 plate reader.

[2] = system: Pseudomonas aeruginosa PA01 (ATCC 15692)
Protocol: as §1, §2, §3, §4, §5, §6, §7

[3] = system: Staphylococcus aureus (3R7089 strain Oxford/ATCC9144)
Protocol: as §1, §2, §3, §4, §5, §6, §7

[4] = system: Staphylococcus epidermidis (laboratory strain from clinical isolate); conditions: 16 h
Protocol: as §1, §2, §3, §4, §5, §6, §7

[5] = laboratory strain from clinical isolate
[6] = lowest concentration completely inhibiting growth, 37 °C, 16 h, range 2–100 μM
[7] = lowest concentration completely inhibiting growth, 37 °C, range 2–100 μM

SMILES | MIC E. coli [1] [µM] | MIC P. aeruginosa ([2]; ATCC 15692, 16 h) [µM] | MIC S. aureus ([3]; ATCC9144, 16 h) [µM] | MIC S. epidermidis [4, 5] [µM] | MIC P. aeruginosa [2, 6] [µM] | MIC S. aureus [3, 6] [µM] | MIC S. epidermidis [4, 7] [µM]
NCCCCCCNCC(=O)N(CC(=O)N(CC(=O)N(CCCCCCN)CC(=O)N(CC(=O)N(CC(=O)N(CCCCCCN)CC(=O)N(CC(=O)N(CC(=O)N(CCCCCCN)CC(=O)N(CC(=O)N(CC(N)=O)Cc1ccccc1)Cc1ccccc1)Cc1ccccc1)Cc1ccccc1)Cc1ccccc1)Cc1ccccc1)Cc1ccccc1)Cc1ccccc1 [Peptoid 1, (NahNpheNphe)4] (H-[Gly(N-(CH2)6NH2)][Nphe][Nphe][Gly(N-(CH2)6NH2)][Nphe][Nphe][Gly(N-(CH2)6NH2)][Nphe][Nphe][Gly(N-(CH2)6NH2)][Nphe][Nphe]-NH2) | 13 | >100 | – | – | – | – | –
NCCCCCCNCC(=O)N(CC(=O)N(CC(=O)N(CCCCCCN)CC(=O)N(CC(=O)N(CC(=O)N(CCCCCCN)CC(=O)N(CC(=O)N(CC(N)=O)Cc1ccccc1)Cc1ccccc1)Cc1ccccc1)Cc1ccccc1)Cc1ccccc1)Cc1ccccc1 [Peptoid 2, (NahNpheNphe)3] (H-[Gly(N-(CH2)6NH2)][Nphe][Nphe][Gly(N-(CH2)6NH2)][Nphe][Nphe][Gly(N-(CH2)6NH2)][Nphe][Nphe]-NH2) | 50 | >100 | – | – | – | – | –
NCCCCCCNCC(=O)N(CC(=O)N(CC(=O)N(CCCCCCN)CC(=O)N(CC(=O)N(CC(N)=O)Cc1ccccc1)Cc1ccccc1)Cc1ccccc1)Cc1ccccc1 [Peptoid 3, (NahNpheNphe)2] (H-[Gly(N-(CH2)6NH2)][Nphe][Nphe][Gly(N-(CH2)6NH2)][Nphe][Nphe]-NH2) | >100 | >100 | >100 | >100 | – | – | –
NCCCCNCC(=O)N(CC(=O)N(CC(=O)N(CCCCN)CC(=O)N(CC(=O)N(CC(=O)N(CCCCN)CC(=O)N(CC(=O)N(CC(=O)N(CCCCN)CC(=O)N(CC(=O)N(CC(N)=O)Cc1ccccc1)Cc1ccccc1)Cc1ccccc1)Cc1ccccc1)Cc1ccccc1)Cc1ccccc1)Cc1ccccc1)Cc1ccccc1 [Peptoid 4, (NLysNpheNphe)4] (H-[Nlys][Nphe][Nphe][Nlys][Nphe][Nphe][Nlys][Nphe][Nphe][Nlys][Nphe][Nphe]-NH2) | 13 | – | – | – | 50 | 3 | 2
NCCCCNCC(=O)N(CC(=O)N(CC(=O)N(CCCCN)CC(=O)N(CC(=O)N(CC(=O)N(CCCCN)CC(=O)N(CC(=O)N(CC(N)=O)Cc1ccccc1)Cc1ccccc1)Cc1ccccc1)Cc1ccccc1)Cc1ccccc1)Cc1ccccc1 [Peptoid 5, (NLysNpheNphe)3] | 50 | >100 | – | – | 100 | 25 | 6
NCCCCNCC(=O)N(CC(=O)N(CC(=O)N(CCCCN)CC(=O)N(CC(=O)N(CC(N)=O)Cc1ccccc1)Cc1ccccc1)Cc1ccccc1)Cc1ccccc1 [Peptoid 6, (NLysNpheNphe)2] (H-[Nlys][Nphe][Nphe][Nlys][Nphe][Nphe]-NH2) | >100 | >100 | >100 | >100 | 100 | 100 | 100
NCCNCC(=O)N(CC(=O)N(CC(=O)N(CCN)CC(=O)N(CC(=O)N(CC(=O)N(CCN)CC(=O)N(CC(=O)N(CC(=O)N(CCN)CC(=O)N(CC(=O)N(CC(N)=O)Cc1ccccc1)Cc1ccccc1)Cc1ccccc1)Cc1ccccc1)Cc1ccccc1)Cc1ccccc1)Cc1ccccc1)Cc1ccccc1 [Peptoid 7, (NaeNpheNphe)4] (H-[Gly(N-2-aminoethyl)][Nphe][Nphe][Gly(N-2-aminoethyl)][Nphe][Nphe][Gly(N-2-aminoethyl)][Nphe][Nphe][Gly(N-2-aminoethyl)][Nphe][Nphe]-NH2) | 13 | – | – | – | 50 | 2 | 6
NCCNCC(=O)N(CC(=O)N(CC(=O)N(CCN)CC(=O)N(CC(=O)N(CC(=O)N(CCN)CC(=O)N(CC(=O)N(CC(N)=O)Cc1ccccc1)Cc1ccccc1)Cc1ccccc1)Cc1ccccc1)Cc1ccccc1)Cc1ccccc1 [Peptoid 8, (NaeNpheNphe)3] (H-[Gly(N-2-aminoethyl)][Nphe][Nphe][Gly(N-2-aminoethyl)][Nphe][Nphe][Gly(N-2-aminoethyl)][Nphe][Nphe]-NH2) | >100 | >100 | – | >100 | 100 | 13 | 100
NCCNCC(=O)N(CC(=O)N(CC(=O)N(CCN)CC(=O)N(CC(=O)N(CC(N)=O)Cc1ccccc1)Cc1ccccc1)Cc1ccccc1)Cc1ccccc1 [Peptoid 9, (NaeNpheNphe)2] (H-[Gly(N-2-aminoethyl)][Nphe][Nphe][Gly(N-2-aminoethyl)][Nphe][Nphe]-NH2) | >100 | >100 | >100 | >100 | 100 | 100 | 100
C[C@@H](c1ccccc1)N(CC(N)=O)C(=O)CN(C(=O)CN(CCCCCCN)C(=O)CN(C(=O)CN(C(=O)CN(CCCCCCN)C(=O)CN(C(=O)CN(C(=O)CN(CCCCCCN)C(=O)CN(C(=O)CN(C(=O)CNCCCCCCN)[C@@H](C)c1ccccc1)[C@@H](C)c1ccccc1)[C@@H](C)c1ccccc1)[C@@H](C)c1ccccc1)[C@@H](C)c1ccccc1)[C@@H](C)c1ccccc1)[C@@H](C)c1ccccc1 [Peptoid 10, (NahNspeNspe)4] (H-[Gly(N-(CH2)6NH2)][Nspe][Nspe][Gly(N-(CH2)6NH2)][Nspe][Nspe][Gly(N-(CH2)6NH2)][Nspe][Nspe][Gly(N-(CH2)6NH2)][Nspe][Nspe]-NH2; N-terminus assumed) | 25 | – | – | – | 50 | 2 | 2
C[C@@H](c1ccccc1)N(CC(N)=O)C(=O)CN(C(=O)CN(CCCCCCN)C(=O)CN(C(=O)CN(C(=O)CN(CCCCCCN)C(=O)CN(C(=O)CN(C(=O)CNCCCCCCN)[C@@H](C)c1ccccc1)[C@@H](C)c1ccccc1)[C@@H](C)c1ccccc1)[C@@H](C)c1ccccc1)[C@@H](C)c1ccccc1 [Peptoid 11, (NahNspeNspe)3] (H-[Gly(N-(CH2)6NH2)][Nspe][Nspe][Gly(N-(CH2)6NH2)][Nspe][Nspe][Gly(N-(CH2)6NH2)][Nspe][Nspe]-NH2) | 25 | >100 | – | – | – | – | –
C[C@@H](c1ccccc1)N(CC(N)=O)C(=O)CN(C(=O)CN(CCCCCCN)C(=O)CN(C(=O)CN(C(=O)CNCCCCCCN)[C@@H](C)c1ccccc1)[C@@H](C)c1ccccc1)[C@@H](C)c1ccccc1 [Peptoid 12, (NahNspeNspe)2] | >100 | >100 | >100 | – | – | – | –
